Consider six compounds from patent EP0032048A1, “Pyrroloylpyrrole derivatives, processes for their preparation and their use” (BEECHAM GROUP PLC, priority 1980, dated 1981).

Holding throughout (format): in vivo
The test system of test [1] is carageenin induced oedema. Kind of test: carrageenin induced oedema test in the rat. To be noted: for inhibitions (carrageenin oedema) versus controls: dose not given. The source says: In a conventional carageenin induced oedema test in the rat, the results were as follows: […]
On the technique in general: In the carrageenan paw model, swelling and tenderness develop within hours.

Test [2] concerns cotton pellet induced granuloma. Kind of test: cotton pellet induced granuloma test. The source says:
In a convention cotton pellet induced granuloma test, the results were as follows: I

For test [3], the system named is phenylquinone induced mouse writhing. The test can be described thus: phenylquinone induced mouse writhing test. To be noted: po; for inhibition at 16 mg/kg: 16 mg/kg per os. An excerpt:
In a conventional phenylquinone induced mouse writhing test, compound 1, 3 and 4 were active at the following dose per os.
(An intraperitoneal irritant provokes the stretching counted in writhing tests.)

For the compound `CC(=O)OC(C)CCc1cc(C)c(C(=O)c2cccn2C)n1C` (stereo not drawn) [Compound 7, 2-Acetoxy-4-(1',4'-Dimethvl-5'-(1"-methyl-2"-pvrroloyl)-2'-pyrryl)butane], the “inhibitions (carrageenin oedema) versus controls” value in test [1] is “significantly different from controls”.
Take `Cc1cc(CCC(C)O)n(C)c1C(=O)c1cccn1C` (stereo not drawn) [Compound 6, 4-(1',4-Dimethyl-5'-(1"-methyl-2"-pyrroloyl)-2'-pyrryl) butan-2-ol]: in test [1], the “inhibitions (carrageenin oedema) versus controls” value is listed as “significantly different from controls”.
As usually defined, the inhibition is the percentage by which the read-out fell short of the control. Low readings indicate a response near the control, high ones a response far below the control. `Cn1cccc1C(=O)c1ccc(CC(=O)O)n1C` [Compound 1, 2-Carboxymethyl-1-methyl-5-(1'-methyl-2'-pyrroloyl)pyrrrole]: 20 mg/kg produced 19% inhibition in test [1] (dose 20 mg/kg, * 0.05>p>0.02). For the same compound, the “Mean Oedema” value in test [1] (dose 20 mg/kg, control 145.3 + 10.3) was 117.7 + 6.6. Besides, in test [2] (dose 10 mg/kg, * 0.05>p>0.02), the inhibition at 10 mg/kg came to 22%. For the same compound, the “Granuloma Wt.” value in test [2] (dose 10 mg/kg, control 48.1) worked out at 37.6 mg. In test [3], 16 mg/kg produced 90% inhibition.
In general, ED50 refers to the dose that gives a 50% effect, or the effect in half of the subjects. The low end stands for an effect at a small dose, the high end for a need for a large dose. As for `Cc1cc(CC(=O)O)n(C)c1C(=O)c1cccn1C` [Compound 3, 2-Carboxymethyl-1,4-dimethyl-5-(1'-methyl-2'-pyrroloyl) pyrrole], in test [1] (dose 12.5 mg/kg, ** 0.01>p>0.001), the inhibition at 12.5 mg/kg was found to be 33%. The “Mean Oedema” value in test [1] (dose 12.5 mg/kg, control 106.0 + 6.01) was 70.62 + 6.31. In test [2] (dose 5 mg/kg, ** 0.01>p>0.001), this compound had an inhibition at 5 mg/kg of 26%. Further, the “Granuloma Wt.” value in test [2] (dose 5 mg/kg, control 35.2) stood at 26.1 mg. Also, the inhibition at 16 mg/kg in test [3] was 100%. The ED50 in test [3] (separate test) is 2.8 mg/kg.
Take `Cc1cc(CCC(=O)O)n(C)c1C(=O)c1cccn1C` [Compound 4, 2-(2'-Carboxyethyl)-1,4-dimethyl-5-(1"-methyl-2" pyrroloyl) pyrrole]: testing at 16 mg/kg in test [3] gave an inhibition of 60%.
As for `CC(=O)CCc1cc(C)c(C(=O)c2cccn2C)n1C` [Compound 5, 4-(1',4'-Dimethyl-5'-(1"-methyl-2"-pyrroloyl)-2'-pyrryl) butan-2-one], the “inhibitions (carrageenin oedema) versus controls” value in test [1] is recorded as “significantly different from controls”.
